In publication PMC11845477, “Exploring the principles behind antibiotics with limited resistance” (Nature Communications, 2025):

Assays:
[1] = system: K. pneumoniae ATCC 10031 (SEN) and K. pneumoniae ATCC 700603 (MDR); assay: microbe, parasite or virus in culture; type: cell-based, Klebsiella pneumoniae; details: for MIC: across three biological replicates
Outline: (§1)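 Cation-adj. MHB2 (not for SCH79797); 11–16-step dilution series; 5 × 10^5 cells/mL; 37 °C, shaking, 18 h; duplicates. Growth by OD600; MIC at OD600 < 0.05. Relative MIC: evolved vs ancestor.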

[2] = system: P. aeruginosa ATCC BAA-3107 (SEN) and P. aeruginosa LESB58 (MDR); assay: microbe, parasite or virus in culture; type: cell-based, Pseudomonas aeruginosa; details: across three biological replicates
Outline: as §1

[3] = system: K. pneumoniae ATCC 10031 (SEN) and K. pneumoniae ATCC 700603 (MDR); assay: Adaptive laboratory evolution (ALE), relative MIC of evolved lines; type: cell-based, Klebsiella pneumoniae
Outline: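 Ten parallel populations per antibiotic–ancestor pair were evolved in MHB at 37 °C, starting near 50% growth-inhibiting drug. Every 72 h they were passaged into 0.5–2.5× increasing concentrations, keeping the highest-drug well with OD600 > 0.2.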

[4] = Klebsiella pneumoniae ATCC 10031 (KP-SEN), ancestor strain, sheet fig 2a
[5] = KP-SEN (Klebsiella pneumoniae ATCC 10031), evolved line 2
[6] = KP-SEN (Klebsiella pneumoniae ATCC 10031), evolved line 6
[7] = KP-SEN (Klebsiella pneumoniae ATCC 10031), evolved line 8
[8] = KP-SEN (Klebsiella pneumoniae ATCC 10031), evolved line 10
[9] = Klebsiella pneumoniae ATCC 10031 (KP-SEN), evolved line 1
[10] = Klebsiella pneumoniae ATCC 10031 (KP-SEN), evolved line 2
[11] = Klebsiella pneumoniae ATCC 10031 (KP-SEN), evolved line 3
[12] = Klebsiella pneumoniae ATCC 10031 (KP-SEN), evolved line 4
[13] = Klebsiella pneumoniae ATCC 10031 (KP-SEN), evolved line 5
[14] = Klebsiella pneumoniae ATCC 10031 (KP-SEN), evolved line 6
[15] = Klebsiella pneumoniae ATCC 10031 (KP-SEN), evolved line 8
[16] = Klebsiella pneumoniae ATCC 10031 (KP-SEN), evolved line 10

C[C@@H](O)[C@H]1C(=O)N2C(C(=O)O)=C(S[C@H]3CC[S@@+]([O-])C3)S[C@H]12 [Sulopenem]
0.0312 µg/mL: MIC of ancestor [1, 4] | MIC of ancestor ([1]; ancestor KP-SEN (Klebsiella pneumoniae ATCC 10031))
8: Relative MIC ([3]; KP-SEN (K. pneumoniae ATCC 10031), evolved line 3 vs ancestor) | Relative MIC [3, 11]
128 µg/mL: MIC of evolved line ([3]; KP-MDR (K. pneumoniae ATCC 700603), evolved line 1 of the given antibiotic) | MIC of evolved line ([3]; KP-MDR (K. pneumoniae ATCC 700603), evolved line 3 of the given antibiotic) | MIC of evolved line ([3]; KP-MDR (K. pneumoniae ATCC 700603), evolved line 4 of the given antibiotic) | MIC of evolved line ([3]; KP-MDR (K. pneumoniae ATCC 700603), evolved line 5 of the given antibiotic) | MIC of evolved line ([3]; KP-MDR (K. pneumoniae ATCC 700603), evolved line 8 of the given antibiotic) | MIC of evolved line ([3]; KP-MDR (K. pneumoniae ATCC 700603), evolved line 9 of the given antibiotic) | MIC of evolved line ([3]; KP-MDR (K. pneumoniae ATCC 700603), evolved line 10 of the given antibiotic)
0.25 µg/mL: MIC of evolved line ([3]; KP-SEN (K. pneumoniae ATCC 10031), evolved line 3 of the given antibiotic)
16 µg/mL: MIC ([2]; Pseudomonas aeruginosa ATCC BAA-3107 (PA-SEN))
1.505 log10: Relative MIC (log10) ([3]; KP-SEN (Klebsiella pneumoniae ATCC 10031), evolved line 1) | Relative MIC (log10) [3, 5] | Relative MIC (log10) [3, 6] | Relative MIC (log10) [3, 7] | Relative MIC (log10) [3, 8]
0.03125 µg/mL: MIC ([1]; Klebsiella pneumoniae ATCC 10031 (KP-SEN))
0.5 µg/mL: MIC of ancestor ([1]; Klebsiella pneumoniae ATCC 700603 (KP-MDR), ancestor strain, sheet fig 2a) | MIC ([1]; Klebsiella pneumoniae ATCC 700603 (KP-MDR)) | MIC of ancestor ([1]; ancestor KP-MDR (Klebsiella pneumoniae ATCC 700603)) | MIC of evolved line ([3]; KP-SEN (K. pneumoniae ATCC 10031), evolved line 4 of the given antibiotic) | MIC of evolved line ([3]; KP-SEN (K. pneumoniae ATCC 10031), evolved line 5 of the given antibiotic) | MIC of evolved line ([3]; KP-SEN (K. pneumoniae ATCC 10031), evolved line 9 of the given antibiotic)
16: Relative MIC ([3]; KP-SEN (K. pneumoniae ATCC 10031), evolved line 4 vs ancestor) | Relative MIC ([3]; KP-SEN (K. pneumoniae ATCC 10031), evolved line 5 vs ancestor) | Relative MIC ([3]; KP-SEN (K. pneumoniae ATCC 10031), evolved line 9 vs ancestor) | Relative MIC [3, 12] | Relative MIC [3, 13] | Relative MIC ([3]; Klebsiella pneumoniae ATCC 10031 (KP-SEN), evolved line 9)
>32 µg/mL: MIC ([2]; Pseudomonas aeruginosa LESB 58 (PA-MDR))
256: Relative MIC ([3]; KP-MDR (K. pneumoniae ATCC 700603), evolved line 1 vs ancestor) | Relative MIC ([3]; KP-MDR (K. pneumoniae ATCC 700603), evolved line 3 vs ancestor) | Relative MIC ([3]; KP-MDR (K. pneumoniae ATCC 700603), evolved line 4 vs ancestor) | Relative MIC ([3]; KP-MDR (K. pneumoniae ATCC 700603), evolved line 5 vs ancestor) | Relative MIC ([3]; KP-MDR (K. pneumoniae ATCC 700603), evolved line 8 vs ancestor) | Relative MIC ([3]; KP-MDR (K. pneumoniae ATCC 700603), evolved line 9 vs ancestor) | Relative MIC ([3]; KP-MDR (K. pneumoniae ATCC 700603), evolved line 10 vs ancestor) | Relative MIC ([3]; Klebsiella pneumoniae ATCC 700603 (KP-MDR), evolved line 1) | Relative MIC ([3]; Klebsiella pneumoniae ATCC 700603 (KP-MDR), evolved line 3) | Relative MIC ([3]; Klebsiella pneumoniae ATCC 700603 (KP-MDR), evolved line 4) | Relative MIC ([3]; Klebsiella pneumoniae ATCC 700603 (KP-MDR), evolved line 5) | Relative MIC ([3]; Klebsiella pneumoniae ATCC 700603 (KP-MDR), evolved line 8) | Relative MIC ([3]; Klebsiella pneumoniae ATCC 700603 (KP-MDR), evolved line 9) | Relative MIC ([3]; Klebsiella pneumoniae ATCC 700603 (KP-MDR), evolved line 10)
32: Relative MIC ([3]; KP-SEN (K. pneumoniae ATCC 10031), evolved line 1 vs ancestor) | Relative MIC ([3]; KP-SEN (K. pneumoniae ATCC 10031), evolved line 2 vs ancestor) | Relative MIC ([3]; KP-SEN (K. pneumoniae ATCC 10031), evolved line 6 vs ancestor) | Relative MIC ([3]; KP-SEN (K. pneumoniae ATCC 10031), evolved line 8 vs ancestor) | Relative MIC ([3]; KP-SEN (K. pneumoniae ATCC 10031), evolved line 10 vs ancestor) | Relative MIC [3, 9] | Relative MIC [3, 10] | Relative MIC [3, 14] | Relative MIC [3, 15] | Relative MIC [3, 16]
2.408 log10: Relative MIC (log10) ([3]; KP-MDR (Klebsiella pneumoniae ATCC 700603), evolved line 1) | Relative MIC (log10) ([3]; KP-MDR (Klebsiella pneumoniae ATCC 700603), evolved line 3) | Relative MIC (log10) ([3]; KP-MDR (Klebsiella pneumoniae ATCC 700603), evolved line 4) | Relative MIC (log10) ([3]; KP-MDR (Klebsiella pneumoniae ATCC 700603), evolved line 8) | Relative MIC (log10) ([3]; KP-MDR (Klebsiella pneumoniae ATCC 700603), evolved line 9)
1 µg/mL: MIC of evolved line ([3]; KP-SEN (K. pneumoniae ATCC 10031), evolved line 1 of the given antibiotic) | MIC of evolved line ([3]; KP-SEN (K. pneumoniae ATCC 10031), evolved line 2 of the given antibiotic) | MIC of evolved line ([3]; KP-SEN (K. pneumoniae ATCC 10031), evolved line 6 of the given antibiotic) | MIC of evolved line ([3]; KP-SEN (K. pneumoniae ATCC 10031), evolved line 8 of the given antibiotic) | MIC of evolved line ([3]; KP-SEN (K. pneumoniae ATCC 10031), evolved line 10 of the given antibiotic)

C[C@@H]1CN2c3c(cc4c(N5C(=O)OC[C@@H]5C)noc4c3F)CC3(C(=O)NC(=O)NC3=O)[C@H]2[C@H](C)O1 [Zoliflodacin]
512: Relative MIC ([3]; KP-SEN (ATCC 10031), evolved line 3, evolved vs ancestor) | Relative MIC [3, 11]
8 µg/mL: MIC ([2]; Pseudomonas aeruginosa, ATCCBAA3107, Pseudomonas aeruginosa ATCC BAA-3107 (PA-SEN))
> 32 µg/mL: MIC ([1]; Klebsiella pneumoniae, Klebsiella pneumoniae ATCC 700603 (KP-MDR)) | MIC ([2]; Pseudomonas aeruginosa, ATCCBAA3107, Pseudomonas aeruginosa LESB 58 (PA-MDR))
0.125 µg/mL: MIC of ancestor ([1]; K. pneumoniae ATCC 10031 (KP-SEN), ancestor strain) | MIC of ancestor [1, 4] | MIC ([1]; Klebsiella pneumoniae, Klebsiella pneumoniae ATCC 10031 (KP-SEN))
3.0103 log10: Relative MIC (log10) [3, 5] | Relative MIC (log10) ([3]; KP-SEN (Klebsiella pneumoniae ATCC 10031), evolved line 4) | Relative MIC (log10) [3, 6] | Relative MIC (log10) [3, 7] | Relative MIC (log10) [3, 8]
1024: Relative MIC ([3]; KP-SEN (ATCC 10031), evolved line 1, evolved vs ancestor) | Relative MIC ([3]; KP-SEN (ATCC 10031), evolved line 2, evolved vs ancestor) | Relative MIC ([3]; KP-SEN (ATCC 10031), evolved line 4, evolved vs ancestor) | Relative MIC ([3]; KP-SEN (ATCC 10031), evolved line 5, evolved vs ancestor) | Relative MIC ([3]; KP-SEN (ATCC 10031), evolved line 6, evolved vs ancestor) | Relative MIC ([3]; KP-SEN (ATCC 10031), evolved line 7, evolved vs ancestor) | Relative MIC ([3]; KP-SEN (ATCC 10031), evolved line 8, evolved vs ancestor) | Relative MIC ([3]; KP-SEN (ATCC 10031), evolved line 10, evolved vs ancestor) | Relative MIC [3, 9] | Relative MIC [3, 10] | Relative MIC [3, 12] | Relative MIC [3, 13] | Relative MIC [3, 14] | Relative MIC ([3]; Klebsiella pneumoniae ATCC 10031 (KP-SEN), evolved line 7) | Relative MIC [3, 15] | Relative MIC [3, 16]
